Results: ChEMBL document CHEMBL4376834, “Discovery of 4H-Chromen-4-one Derivatives as a New Class of Selective Rho Kinase (ROCK) Inhibitors, which Showed Potent Activity in ex Vivo Diabetic Retinopathy Models” (J Med Chem, 2019)

How the values were obtained:
[1] = Apparent permeability in dog MDCK cells incubated for 90 mins by LC-MS analysis; format: ADME, cell-based, Canis lupus familiaris
[2] = target: Tyrosine-protein kinase ABL1 (Homo sapiens, UniProt P00519, Y253F); assay: Inhibition of human recombinant ABL1 Y253F mutant (27 to end residues) using EAIYAAPFAKKK as substrate incubated for 40 mins in presence of [gamma-33P]ATP by radiometric scintillation counting analysis
[3] = target: Protein-tyrosine kinase 6 (Homo sapiens, UniProt Q13882); assay: Inhibition of recombinant full length human BRK using poly(Glu, Tyr) 4:1 as substrate incubated for 40 mins in presence of [gamma-33ATP] by radiometric scintillation counting analysis
[4] = target: Tyrosine-protein kinase BTK (Homo sapiens, UniProt Q06187, R28H); assay: Inhibition of recombinant full length human BTK R28H mutant using KVEKIGEGTYGVV substrate incubated for 40 mins in presence of [gamma-33ATP] by radiometric scintillation counting analysis
[5] = target: Calcium/calmodulin-dependent protein kinase type II subunit alpha (Homo sapiens, UniProt Q9UQM7); assay: Inhibition of recombinant full length human CaMK2alpha using KKLNRTLSFAEPG as substrate incubated for 40 mins in presence of [gamma-33ATP] by radiometric scintillation counting analysis
[6] = target: Transient receptor potential cation channel subfamily M member 7 (Homo sapiens, UniProt Q96QT4); assay: Inhibition of recombinant human CHAK1 (1180 to end residues) using myelin basic protein as substrate incubated for 40 mins in presence of [gamma-33ATP] by radiometric scintillation counting analysis
[7] = target: Discoidin domain-containing receptor 2 (Homo sapiens, UniProt Q16832); assay: Inhibition of recombinant human DDR2 S642A mutant (467 to end residues) using KKSRGDYMTMQIG as substrate after 40 mins in presence of [gamma-33ATP] by radiometric scintillation counting analysis
[8] = target: Protein kinase C delta type (Homo sapiens, UniProt Q05655); assay: Inhibition of recombinant human PKCdelta (2 to end residues) using ERMRPRKRQGSVRR as substrate incubated for 40 mins in presence of [gamma33P]ATP by radiometric scintillation counting analysis
[9] = target: Serine/threonine-protein kinase NIM1 (Homo sapiens, UniProt Q8IY84); assay: Inhibition of recombinant full length human NIM1 using KKKVSRSGLYRSP as substrate measured after 40 mins in presence of [gamma33P]ATP by radiometric scintillation counting analysis
[10] = target: Serine/threonine-protein kinase 3 (Homo sapiens, UniProt Q13188); assay: Inhibition of recombinant human MST2 (2 to end residues) using myelin basic protein as substrate measured after 40 mins in presence of [gamma33P]ATP by radiometric scintillation counting analysis
[11] = target: Platelet-derived growth factor receptor alpha (Homo sapiens, UniProt P16234, V561D); assay: Inhibition of human PDGFRalpha V561D mutant (550 to end residues) using GGMEDIYFEFMGG as substrate measured after 40 mins in presence of [gamma33P]ATP by radiometric scintillation counting analysis
[12] = target: Serine/threonine-protein kinase PAK 5 (Homo sapiens, UniProt Q9P286); assay: Inhibition of recombinant human PAK5 (425 to end residues) using RRRLSFAEPG as substrate measured after 40 mins in presence of [gamma33P]ATP by radiometric scintillation counting analysis
Ephrin type-A receptor 3 = Ephrin type-A receptor 3 (Homo sapiens, UniProt P29320); assay: Inhibition of recombinant human EphA3 (578 to end residues) using poly(Glu, Tyr) 4:1 as substrate measured after 40 mins in presence of [gamma33ATP] by radiometric scintillation counting analysis
Ephrin type-A receptor 7 = Ephrin type-A receptor 7 (Homo sapiens, UniProt Q15375); assay: Inhibition of recombinant human EphA7 (613 to 909 residues) using KTFCGTPEYLAPE as substrate measured after 40 mins in presence of [gamma33ATP] by radiometric scintillation counting analysis
[13] = target: Tyrosine-protein kinase JAK1 (Homo sapiens, UniProt P23458); assay: Inhibition of human recombinant JAK1 (866 to end residues) using GEEPLYWSFPAKK as substrate after 40 mins by [gamma-33ATP] by radiometric scintillation counting analysis
[14] = target: cGMP-dependent protein kinase 2 (Homo sapiens, UniProt Q13237); assay: Inhibition of recombinant full-length human PRKG2 using KKLRRTLSFAEPG as substrate incubated for 40 mins in presence of [gamma33P]ATP by radiometric scintillation counting analysis
[15] = target: Serine/threonine-protein kinase N1 (Homo sapiens, UniProt Q16512, V901I); assay: Inhibition of recombinant human PRK1 V901I (498 to end residues) using KKLNRTLSFAEPG as substrate incubated for 40 mins in presence of [gamma33P]ATP by radiometric scintillation counting analysis
[16] = target: Proto-oncogene tyrosine-protein kinase receptor Ret (Homo sapiens, UniProt P07949); assay: Inhibition of recombinant human Ret (658 to end residues) using KKKSPGEYVNIEF as substrate incubated for 40 mins in presence of [gamma33P]ATP by radiometric scintillation counting analysis
[17] = target: Mitogen-activated protein kinase 13 (Homo sapiens, UniProt O15264); assay: Inhibition of recombinant human full length SAPK4 using myelin basic protein as substrate incubated for 40 mins in presence of [gamma33P]ATP by radiometric scintillation counting analysis
[18] = target: Serine/threonine-protein kinase SIK2 (Homo sapiens, UniProt Q9H0K1); assay: Inhibition of recombinant human SIK2 (1 to 276 residues) using KKKVSRSGLYRSP as substrate incubated for 40 mins in presence of [gamma33P]ATP by radiometric scintillation counting analysis
[19] = Inhibition of human SNRK E97G/P116A double mutant (65 to 409 residues) using KKLRRTLSFAEPG as substrate incubated for 40 mins in presence of [gamma33P]ATP by radiometric scintillation counting analysis
[20] = target: Serine/threonine-protein kinase 32B (Homo sapiens, UniProt Q9NY57); assay: Inhibition of recombinant human full length STK32B using casein as substrate incubated for 40 mins in presence of [gamma33P]ATP by radiometric scintillation counting analysis
[21] = target: Transcription initiation factor TFIID subunit 1-like (Homo sapiens, UniProt Q8IZX4); assay: Inhibition of recombinant human TAF1L (1428 to end residues) using RRRFRPASPLRGP as substrate incubated for 120 mins in presence of [gamma33P]ATP by radiometric scintillation counting analysis
Angiopoietin-1 receptor = Angiopoietin-1 receptor (Homo sapiens, UniProt Q02763, Q939H/Q940H); assay: Inhibition of recombinant human TIE2 Q939H/Q940H double mutant (771 to end residues) using poly(Glu, Tyr) 4:1 as substrate incubated for 40 mins in presence of [gamma33P]ATP by radiometric scintillation counting analysis
[22] = target: Death-associated protein kinase 3 (Homo sapiens, UniProt O43293); assay: Inhibition of recombinant human ZIPK (1 to 290 residues) using KKLNRTLSFAEPG substrate incubated for 40 mins in presence of [gamma33P]ATP by radiometric scintillation counting analysis

Chain of Calcium/calmodulin-dependent protein kinase type II subunit alpha (Q9UQM7 whole entry): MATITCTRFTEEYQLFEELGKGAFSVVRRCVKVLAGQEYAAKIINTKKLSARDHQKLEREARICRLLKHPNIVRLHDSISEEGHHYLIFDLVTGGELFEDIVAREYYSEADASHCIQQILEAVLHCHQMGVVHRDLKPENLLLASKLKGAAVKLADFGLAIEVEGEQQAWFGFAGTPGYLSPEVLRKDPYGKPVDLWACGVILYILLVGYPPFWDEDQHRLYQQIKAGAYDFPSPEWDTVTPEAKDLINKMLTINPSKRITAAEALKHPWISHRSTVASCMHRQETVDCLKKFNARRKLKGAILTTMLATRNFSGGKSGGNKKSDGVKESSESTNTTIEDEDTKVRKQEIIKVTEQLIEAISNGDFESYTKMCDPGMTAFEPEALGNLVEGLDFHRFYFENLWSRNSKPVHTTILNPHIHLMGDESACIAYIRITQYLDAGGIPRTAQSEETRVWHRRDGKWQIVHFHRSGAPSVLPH
Chain of Tyrosine-protein kinase JAK1 (P23458 whole entry): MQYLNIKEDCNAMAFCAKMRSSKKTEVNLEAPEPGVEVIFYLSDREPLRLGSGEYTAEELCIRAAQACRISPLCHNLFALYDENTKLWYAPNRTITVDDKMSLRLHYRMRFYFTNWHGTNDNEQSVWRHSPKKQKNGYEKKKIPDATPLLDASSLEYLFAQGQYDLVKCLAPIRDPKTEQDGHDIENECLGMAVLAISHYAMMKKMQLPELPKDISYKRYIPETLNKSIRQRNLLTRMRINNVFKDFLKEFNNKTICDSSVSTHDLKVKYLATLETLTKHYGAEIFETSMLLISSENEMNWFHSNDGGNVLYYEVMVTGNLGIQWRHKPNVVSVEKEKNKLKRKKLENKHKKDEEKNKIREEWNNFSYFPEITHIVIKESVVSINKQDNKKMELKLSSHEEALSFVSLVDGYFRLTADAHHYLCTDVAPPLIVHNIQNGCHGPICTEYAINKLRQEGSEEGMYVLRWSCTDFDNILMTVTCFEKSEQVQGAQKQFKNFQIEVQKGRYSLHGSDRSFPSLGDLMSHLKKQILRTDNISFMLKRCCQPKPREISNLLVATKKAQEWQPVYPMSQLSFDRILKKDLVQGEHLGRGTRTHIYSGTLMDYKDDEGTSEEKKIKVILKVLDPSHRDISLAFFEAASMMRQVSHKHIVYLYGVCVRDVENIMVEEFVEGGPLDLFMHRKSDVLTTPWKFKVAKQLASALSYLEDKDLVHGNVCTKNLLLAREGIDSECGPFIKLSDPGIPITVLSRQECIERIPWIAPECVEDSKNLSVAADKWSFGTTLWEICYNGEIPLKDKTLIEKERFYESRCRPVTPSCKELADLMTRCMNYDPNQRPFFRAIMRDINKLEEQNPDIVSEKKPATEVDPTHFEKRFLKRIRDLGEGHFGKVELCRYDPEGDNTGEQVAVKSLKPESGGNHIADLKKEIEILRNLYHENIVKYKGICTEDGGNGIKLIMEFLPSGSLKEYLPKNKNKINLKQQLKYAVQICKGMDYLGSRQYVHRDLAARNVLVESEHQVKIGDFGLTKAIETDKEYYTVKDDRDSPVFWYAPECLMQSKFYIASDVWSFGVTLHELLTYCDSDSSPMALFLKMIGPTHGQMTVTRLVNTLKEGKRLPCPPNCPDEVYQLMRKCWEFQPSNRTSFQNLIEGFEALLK
Chain of Proto-oncogene tyrosine-protein kinase receptor Ret (P07949 whole entry): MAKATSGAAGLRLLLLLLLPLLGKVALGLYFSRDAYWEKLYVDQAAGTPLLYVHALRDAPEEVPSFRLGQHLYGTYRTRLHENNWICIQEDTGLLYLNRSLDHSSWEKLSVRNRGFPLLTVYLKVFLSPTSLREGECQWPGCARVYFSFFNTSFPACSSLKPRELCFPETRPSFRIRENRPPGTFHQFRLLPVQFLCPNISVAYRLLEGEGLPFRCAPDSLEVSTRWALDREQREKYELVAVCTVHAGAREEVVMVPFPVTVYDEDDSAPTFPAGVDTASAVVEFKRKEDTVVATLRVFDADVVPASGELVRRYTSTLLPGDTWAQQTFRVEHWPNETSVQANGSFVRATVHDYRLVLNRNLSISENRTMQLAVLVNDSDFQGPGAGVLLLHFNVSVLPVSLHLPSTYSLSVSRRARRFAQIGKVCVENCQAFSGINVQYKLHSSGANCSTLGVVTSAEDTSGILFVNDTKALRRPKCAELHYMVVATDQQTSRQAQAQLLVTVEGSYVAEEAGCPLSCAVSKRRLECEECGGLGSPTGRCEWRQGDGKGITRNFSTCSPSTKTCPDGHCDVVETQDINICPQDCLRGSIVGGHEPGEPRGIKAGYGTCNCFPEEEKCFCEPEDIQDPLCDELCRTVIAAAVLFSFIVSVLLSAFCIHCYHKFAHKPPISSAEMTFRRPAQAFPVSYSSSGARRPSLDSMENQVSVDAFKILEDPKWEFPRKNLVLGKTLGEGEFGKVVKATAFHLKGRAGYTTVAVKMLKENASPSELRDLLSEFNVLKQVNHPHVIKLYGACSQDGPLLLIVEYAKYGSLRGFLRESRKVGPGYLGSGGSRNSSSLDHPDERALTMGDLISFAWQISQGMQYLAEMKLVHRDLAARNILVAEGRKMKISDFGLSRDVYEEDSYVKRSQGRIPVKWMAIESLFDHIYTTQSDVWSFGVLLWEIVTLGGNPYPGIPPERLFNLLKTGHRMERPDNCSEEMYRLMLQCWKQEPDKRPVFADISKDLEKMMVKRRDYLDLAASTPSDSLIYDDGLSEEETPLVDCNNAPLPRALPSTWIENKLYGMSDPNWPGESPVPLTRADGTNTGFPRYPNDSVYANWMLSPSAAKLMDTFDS
Chain of Platelet-derived growth factor receptor alpha (P16234 24-1089 V561D limits assumed): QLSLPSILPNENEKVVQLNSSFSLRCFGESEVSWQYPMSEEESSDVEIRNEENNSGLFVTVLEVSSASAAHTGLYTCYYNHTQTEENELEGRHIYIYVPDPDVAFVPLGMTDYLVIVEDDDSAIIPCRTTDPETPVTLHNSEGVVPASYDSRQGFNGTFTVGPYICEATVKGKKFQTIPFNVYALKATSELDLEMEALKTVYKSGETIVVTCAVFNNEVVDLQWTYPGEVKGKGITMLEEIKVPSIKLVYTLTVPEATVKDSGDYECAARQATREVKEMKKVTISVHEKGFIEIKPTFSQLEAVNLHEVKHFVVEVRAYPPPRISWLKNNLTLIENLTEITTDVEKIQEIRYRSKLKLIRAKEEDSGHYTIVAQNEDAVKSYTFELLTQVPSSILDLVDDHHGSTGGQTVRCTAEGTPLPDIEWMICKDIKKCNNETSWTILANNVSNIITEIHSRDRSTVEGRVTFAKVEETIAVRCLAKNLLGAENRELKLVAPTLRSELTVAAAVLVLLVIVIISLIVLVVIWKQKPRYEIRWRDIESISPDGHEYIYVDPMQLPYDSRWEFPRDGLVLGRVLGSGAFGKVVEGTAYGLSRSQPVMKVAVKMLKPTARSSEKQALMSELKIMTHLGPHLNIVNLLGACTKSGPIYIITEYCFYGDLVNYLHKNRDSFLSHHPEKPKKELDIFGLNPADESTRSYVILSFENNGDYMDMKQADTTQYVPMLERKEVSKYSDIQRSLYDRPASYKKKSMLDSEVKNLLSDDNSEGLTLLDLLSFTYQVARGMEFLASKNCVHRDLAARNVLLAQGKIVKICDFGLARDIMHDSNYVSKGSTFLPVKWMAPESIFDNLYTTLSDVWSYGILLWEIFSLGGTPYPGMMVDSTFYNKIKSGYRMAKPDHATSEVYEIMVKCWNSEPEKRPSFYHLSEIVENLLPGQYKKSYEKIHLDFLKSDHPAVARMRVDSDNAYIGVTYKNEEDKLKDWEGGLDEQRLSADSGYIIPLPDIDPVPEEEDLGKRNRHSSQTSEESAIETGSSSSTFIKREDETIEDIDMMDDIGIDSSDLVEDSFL
Chain of Protein-tyrosine kinase 6 (Q13882 whole entry): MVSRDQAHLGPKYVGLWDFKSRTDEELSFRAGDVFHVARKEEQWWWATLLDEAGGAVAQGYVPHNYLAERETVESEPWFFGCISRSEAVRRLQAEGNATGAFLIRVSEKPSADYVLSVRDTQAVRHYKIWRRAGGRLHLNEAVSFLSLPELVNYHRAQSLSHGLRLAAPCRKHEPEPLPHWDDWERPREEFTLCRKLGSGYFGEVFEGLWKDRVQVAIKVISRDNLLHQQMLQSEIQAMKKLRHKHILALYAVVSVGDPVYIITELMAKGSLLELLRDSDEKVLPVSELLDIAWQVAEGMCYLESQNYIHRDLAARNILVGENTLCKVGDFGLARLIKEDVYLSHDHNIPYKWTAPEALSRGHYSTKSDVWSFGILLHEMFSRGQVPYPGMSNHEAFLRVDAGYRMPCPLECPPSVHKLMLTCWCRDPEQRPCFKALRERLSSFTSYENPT
Chain of Tyrosine-protein kinase BTK (Q06187 2-659 R28H limits assumed): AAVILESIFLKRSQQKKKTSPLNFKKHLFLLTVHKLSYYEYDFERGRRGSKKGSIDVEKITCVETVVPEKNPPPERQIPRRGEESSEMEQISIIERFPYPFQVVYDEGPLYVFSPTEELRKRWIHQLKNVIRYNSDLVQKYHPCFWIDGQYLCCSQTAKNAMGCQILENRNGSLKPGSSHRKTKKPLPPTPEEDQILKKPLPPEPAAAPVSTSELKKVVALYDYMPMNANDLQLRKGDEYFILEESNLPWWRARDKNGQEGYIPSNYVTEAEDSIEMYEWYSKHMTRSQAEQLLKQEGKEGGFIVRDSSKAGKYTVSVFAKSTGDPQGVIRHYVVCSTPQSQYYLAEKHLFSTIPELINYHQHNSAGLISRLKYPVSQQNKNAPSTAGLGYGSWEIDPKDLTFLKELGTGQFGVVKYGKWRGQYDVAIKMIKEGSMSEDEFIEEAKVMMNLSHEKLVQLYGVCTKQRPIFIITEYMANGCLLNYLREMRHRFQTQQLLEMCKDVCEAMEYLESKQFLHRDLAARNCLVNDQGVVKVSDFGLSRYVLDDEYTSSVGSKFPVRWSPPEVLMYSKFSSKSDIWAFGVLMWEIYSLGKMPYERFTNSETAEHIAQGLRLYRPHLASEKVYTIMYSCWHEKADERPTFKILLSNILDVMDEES

For `CN(C)c1ccc(C(=O)Nc2cccc(NC(=O)COc3ccc4c(=O)ccoc4c3)c2)cc1`, which Papp at 1.5 h [1] is on record?
Its Papp at 1.5 h is 9.41 ×10⁻⁶ cm/s.

And the IC50 [2]?
Its IC50 is greater than 10 µM.

What about the IC50 [3] of the same molecule?
The IC50 was greater than 10 µM.

What about the IC50 [4] of the same molecule?
The IC50 was greater than 10 µM.

What about the IC50 [5] of the same molecule?
The IC50 was greater than 10 µM.

And the IC50 [6]?
Its IC50 is greater than 10 µM.

And the IC50 [7]?
The IC50 was greater than 10 µM.

What about the IC50 [8] of the same molecule?
Its IC50 is greater than 10 µM.

And the IC50 [9]?
Its IC50 is greater than 10 µM.

What about the IC50 [10] of the same molecule?
The IC50 was greater than 10 µM.

And the IC50 [11]?
Its IC50 is greater than 10 µM.

And the IC50 [12]?
Its IC50 is greater than 10 µM.

And the IC50 (Ephrin type-A receptor 3)?
The IC50 was greater than 10 µM.

What about the IC50 (Ephrin type-A receptor 7) of the same molecule?
The IC50 was greater than 10 µM.

What about the IC50 [13] of the same molecule?
Its IC50 is greater than 10 µM.

What about the IC50 [14] of the same molecule?
The IC50 was greater than 10 µM.

And the IC50 [15]?
The IC50 was greater than 10 µM.

What about the IC50 [16] of the same molecule?
Its IC50 is greater than 10 µM.

And the IC50 [17]?
The IC50 was greater than 10 µM.

What about the IC50 [18] of the same molecule?
The IC50 was greater than 10 µM.

And the IC50 [19]?
The IC50 was greater than 10 µM.

What about the IC50 [20] of the same molecule?
The IC50 was greater than 10 µM.

And the IC50 [21]?
The IC50 was greater than 10 µM.

What about the IC50 (Angiopoietin-1 receptor) of the same molecule?
The IC50 was greater than 10 µM.

What about the IC50 [22] of the same molecule?
Its IC50 is greater than 10 µM.
